Laboratory results as given in patent publication US10300109B2, “Peptidomimetic macrocycles” (AILERON Therapeutics, Inc., priority 2009, dated 2019).
Where two headings read alike, the source gives them in different places. Where a SMILES comes first, the peptide text is derived from it. Bridges are numbered along the chain shown (N, C = ends). [ ]: non-standard residue; d: D form. S5 = C=CCCC[C@](C)(N)C(=O)O

Molecular target: T1, Beta-Catenin (aa 134-668) (Homo sapiens, UniProt P35222)
T1 construct: Beta-Catenin (aa 134-668, 59 KD)
T1 sequence (P35222 134-668): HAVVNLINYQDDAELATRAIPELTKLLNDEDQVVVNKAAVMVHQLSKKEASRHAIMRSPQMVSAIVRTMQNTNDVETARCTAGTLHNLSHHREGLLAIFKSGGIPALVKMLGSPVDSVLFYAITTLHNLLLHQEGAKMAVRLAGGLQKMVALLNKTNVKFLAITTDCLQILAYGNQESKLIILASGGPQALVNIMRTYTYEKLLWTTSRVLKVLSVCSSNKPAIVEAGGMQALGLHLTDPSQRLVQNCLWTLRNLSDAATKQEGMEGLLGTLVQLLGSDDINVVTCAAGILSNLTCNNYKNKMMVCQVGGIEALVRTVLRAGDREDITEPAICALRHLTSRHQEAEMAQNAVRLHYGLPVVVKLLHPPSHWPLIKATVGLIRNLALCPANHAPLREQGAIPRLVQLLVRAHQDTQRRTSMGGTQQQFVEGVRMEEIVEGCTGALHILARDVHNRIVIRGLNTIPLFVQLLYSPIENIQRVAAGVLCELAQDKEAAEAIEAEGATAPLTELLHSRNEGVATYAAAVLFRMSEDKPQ
Test: TCF/Beta-Catenin competitive fluorescence polarization assay
Type: binding
Conditions: competition with FAM-labelled linear probe for 6x His-tagged Beta-Catenin, room temperature, three hours
Description: The following experiments are performed at room temperature unless otherwise noted. First, an assay buffer is prepared composed of 25 mM Tris-Hcl pH 7.5, 200 mM Sodium Chloride, and 5 mM CHAPS. Next, 1M DTT is added to assay buffer to a final concentration of 2 mM. […] Forty μl of this protein stock is added to all but six wells of a 96 well plate (which will serve as the free peptide and Blank). Test competitor peptides are diluted from 1 mM DMSO stocks to 2× working stocks in assay buffer. Further dilutions are made in assay buffer-DMSO as to maintain a constant DMSO concentration in all wells. […] As a benchmark, a linear, non-crosslinked peptide competitor is prepared as above but with a working concentration range of 13-0.7 μM. Fifty μl of the competitor 2× stocks are added to the 40 μl of protein solution previously transferred into the assay 96 well plate. Next, a 10× stock of the fluorescent probe is prepared. The probe is identical to the linear benchmark peptide except for the n-terminal conjugation of a FAM flourophore with Beta-Alanine spacer. A 1 mM DMSO stock of the probe is serially diluted to a final concentration of 25 nM (10×) and 10 μl of this stock is added to all wells except for those that will serve as the blank. The assay plate is stored in the dark and the reaction is allowed to run at room temperature for three hours. The reaction is then read on a Biotek Synergy 2 with the following settings: 100 ms delay, 40 measurements per well, with excitation filters of […], and emission filters of […]. Data is then analyzed in Graphpad Prism.

[1] = read-out: Binding Activity: IC50

Row | SMILES | IC50 (Binding Activity: IC50 (nM)) | IC50 [1]
1 | CC[C@H](C)[C@H](NC(=O)[C@H](CC(C)C)NC(=O)[C@H](CCC(=O)O)NC(=O)[C@H](CC(=O)O)NC(=O)[C@H](CC(N)=O)NC(=O)[C@H](C)NC(=O)CNC(=O)[C@H](CC(C)C)NC(C)=O)C(=O)N[C@@H](CO)C(=O)N[C@@H](Cc1ccccc1)C(=O)N[C@@H](CCCCN)C(=O)N[C@@]1(C)CCCC=CCCC[C@@](C)(C(=O)N[C@@H](CCC(=O)O)C(=O)N[C@@H](CCC(=O)O)C(=O)N[C@@H](CCCCN)C(=O)N[C@@H](CO)C(=O)N[C@@H](CO)C(=O)N[C@@H](CC(N)=O)C(=O)N[C@@H](CC(N)=O)C(=O)N[C@@H](CO)C(=O)N[C@@H](CO)C(=O)N[C@@H](C)C(=O)N[C@@H](CCC(=O)O)C(=O)N[C@@H](CCCNC(=N)N)C(=O)N[C@@H](CC(=O)O)C(=O)N[C@@H](CC(C)C)C(=O)N[C@@H](C)C(=O)N[C@@H](CC(=O)O)C(=O)N[C@H](C(=O)N[C@@H](CCCCN)C(=O)N[C@@H](CO)C(=O)N[C@@H](CO)C(=O)N[C@@H](CC(C)C)C(=O)N[C@H](C(N)=O)C(C)C)C(C)C)NC(=O)[C@H](CCC(=O)O)NC(=O)CNC(=O)[C@H](CCC(=O)O)NC1=O [SP27] (Ac-LGANDELISFK[S5]EGE[S5]EEKSSNNSSAERDLADVKSSLV-NH2; staple 12-16) | 158 nM | –
2 | CC(=O)N[C@@H](CO)C(=O)N[C@@H](C)C(=O)N[C@@H](CCC(=O)O)C(=O)N[C@@H](CCCNC(=N)N)C(=O)N[C@@H](CC(=O)O)C(=O)N[C@@H](CC(C)C)C(=O)N[C@@H](C)C(=O)N[C@@H](CC(=O)O)C(=O)N[C@H](C(=O)N[C@@H](CCCCN)C(=O)N[C@@]1(C)CCCC=CCCC[C@@](C)(C(=O)N[C@@H](CCC(=O)O)C(=O)N[C@@H](CO)C(=O)N[C@@H](CCC(=O)O)C(=O)N[C@@H](CCCCN)C(=O)N[C@@H](CCCNC(=N)N)C(N)=O)NC(=O)[C@H](C(C)C)NC(=O)[C@H](CC(C)C)NC(=O)[C@H](CO)NC1=O)C(C)C [SP12, Ac-SAERDLADVK$SLV$ESEKR-NH2] (Ac-SAERDLADVK[S5]SLV[S5]ESEKR-NH2; staple 11-15) | – | 84900 nM
3 | CC[C@H](C)[C@H](NC(=O)[C@H](CC(C)C)NC(=O)[C@H](CCC(=O)O)NC(=O)[C@H](CC(=O)O)NC(=O)[C@H](CC(N)=O)NC(=O)[C@H](C)NC(=O)CNC(=O)[C@H](CC(C)C)NC(C)=O)C(=O)N[C@@H](CO)C(=O)N[C@@H](Cc1ccccc1)C(=O)N[C@@H](CCCCN)C(=O)N[C@@H](CC(=O)O)C(=O)N[C@@H](CCC(=O)O)C(=O)NCC(=O)N[C@@]1(C)CCCC=CCCC[C@@](C)(C(=O)N[C@@H](CO)C(=O)N[C@@H](CO)C(=O)N[C@@H](CC(N)=O)C(=O)N[C@@H](CC(N)=O)C(=O)N[C@@H](CO)C(=O)N[C@@H](CO)C(=O)N[C@@H](C)C(=O)N[C@@H](CCC(=O)O)C(=O)N[C@@H](CCCNC(=N)N)C(=O)N[C@@H](CC(=O)O)C(=O)N[C@@H](CC(C)C)C(=O)N[C@@H](C)C(=O)N[C@@H](CC(=O)O)C(=O)N[C@H](C(=O)N[C@@H](CCCCN)C(=O)N[C@@H](CO)C(=O)N[C@@H](CO)C(=O)N[C@@H](CC(C)C)C(=O)N[C@H](C(N)=O)C(C)C)C(C)C)NC(=O)[C@H](CCC(=O)O)NC(=O)[C@H](CCC(=O)O)NC(=O)[C@H](CCC(N)=O)NC1=O [SP28, Ac-LGANDELISFKDEG$QEE$SSNNSSAERDLADVKSSLV-NH2] (Ac-LGANDELISFKDEG[S5]QEE[S5]SSNNSSAERDLADVKSSLV-NH2; staple 15-19) | – | 158 nM
